ChEMBL document CHEMBL1121460, “Some spiro analogues of the potent analgesic ketobemidone” (J Med Chem, 1980)
Activity calls are given as the source filed them. The rule behind the calls is not given here.

Tests used:
[1] = biological target: Opioid receptor (Rattus norvegicus, UniProt P33533+P34975+P33535); assay: Tested for Opioid receptors affinity determined by the capacity to displace bound, radiolabeled dihydromorphine from rat brain homogenates.
[2] = system: Monkey; assay: Evaluated for single dose suppression tests in monkeys at 2 mg/kg; Not Effective (activity in relation to morphine); assay type: functional, organism-based; set-up: dose 2 mg/kg; settings: Cercopithecidae
[3] = organism: Mus musculus; assay: Evaluated for analgesic activity in mice using hot plate method; assay type: functional
[4] = system: Monkey; assay: Evaluated for single dose suppression tests in monkeys at 10 mg/kg; Not Effective (activity in relation to morphine); assay type: functional, organism-based; set-up: dose 10 mg/kg; settings: Cercopithecidae
[5] = system: Monkey; assay: Evaluated for depressant effects in photocell activity cages at 10 mg/kg; IA is Inactive.; assay type: functional, organism-based; set-up: dose 10 mg/kg; settings: Cercopithecidae
[6] = Lethal dose in monkeys; assay type: toxicity, organism-based; settings: cercopithecidae, in vivo
[7] = system: Monkey; assay: Evaluated for single dose suppression tests in monkeys at 5 mg/kg; Not Effective (activity in relation to morphine); assay type: functional, organism-based; set-up: dose 5 mg/kg; settings: Cercopithecidae
[8] = organism: Mus musculus; assay: Evaluated for analgesic activity in mice using Nilsen test; assay type: functional
[9] = organism: Mus musculus; assay: Evaluated for analgesic activity in mice using writhing test; assay type: functional
[10] = system: Monkey; assay: Evaluated for depressant effects in photocell activity cages at 60 mg/kg; IA is Inactive.; assay type: functional, organism-based; set-up: dose 60 mg/kg; settings: Cercopithecidae
[11] = system: Monkey; assay: Evaluated for activity in inverted screen assay; assay type: functional; settings: Cercopithecidae
[12] = organism: Mus musculus; assay: Evaluated for activity in Nilsen test

Structure (SMILES) | Ki [1] | ED50 [3] | ED50 [8] | further results
CCCCCN1CCC2(CC1)c1cc(O)ccc1C(C)(C)OC2CC (configuration not stated) | 2 µM | > 30 mg/kg | > 30 mg/kg | Activity [2]: inactive; Activity [4]: inactive; ED50 [5]: inactive; LD50 [6]: 80 mg/kg; Activity [7]: inactive; ED50 [9]: 4.2 mg/kg; ED50 [10]: inactive; ED50 [11]: 38 mg/kg
CN1CC[C@]23c4c5ccc(O)c4O[C@H]2[C@@H](O)C=C[C@H]3[C@H]1C5 [MORPHINE] |  |  |  | ED50 [12]: 0.8 mg/kg
CCC(=O)C1(c2cccc(O)c2)CCN(C)CC1 [KETOBEMIDONE] |  | 0.8 mg/kg |  | 
CCC1OC(C)(C)c2ccc(O)cc2C12CCN(C)CC2 (configuration not stated) | 10 µM | > 30 mg/kg | > 30 mg/kg | 
CCCCCN1CCC2(CC1)c1cc(O)ccc1C(C)(CC)OC2CC (configuration not stated) | 5 µM | > 30 mg/kg | > 30 mg/kg | 
C=CCN1CCC2(CC1)c1cc(O)ccc1C(C)(C)OC2CC (configuration not stated) | 5 µM | > 30 mg/kg | > 30 mg/kg | 
